The record followed here is ChEMBL document CHEMBL1128655, “3-Fluoro-2-(4-methylpiperazin-1-yl)-5,12-dihydro-5-oxobenzoxazolo[3,2-a]quinoline-6-carboxylic acid: Synthesis and In vitro cytotoxic activity” (Bioorg Med Chem Lett, 1995).

Common to all, as to assay type: functional, cell-based
The test system of one assay is SNU-C4. Put plainly: In vitro cytotoxic activity against human tumor SNU C-4(colon) cell line.
A further assay deals with SNU1. The assay can be described thus: In vitro cytotoxic activity against human tumor SNU 1 (stomach) cell line.
Another assay deals with SNU-354. The assay can be described thus: In vitro cytotoxic activity against human tumor SNU 354 (liver) cell line.
The mark [1] stands for this setting: Homo sapiens, SNU-C4, read-out: IC50.
Where [2] appears, read: Homo sapiens, SNU1, read-out: IC50.
The mark [3] stands for this setting: Homo sapiens, SNU-354, read-out: IC50.

Converted amounts (≈) assume the structure as drawn.

On to CISPLATIN, for which the IC50 in the assay with SNU-C4 (snu-c4) amounted to 2.8 µg/mL; in the assay with SNU1 (snu1) it was 1.4 µg/mL; in the assay with SNU-354 (snu-354), 4.1 µg/mL.
For the molecule `CN1CCN(c2cc3c(cc2F)c(=O)c(C(=O)O)c2oc4ccccc4n23)CC1.Cl`, the half-inhibitory concentration (IC50) in the assay on SNU-C4 (setting [1]) came out at 1.8 µg/mL; in the assay on SNU1 (setting [2]) it was 2 µg/mL; with SNU-354 (setting [3]) it was 1.9 µg/mL.
`COc1cccc2c1C(=O)c1c(O)c3c(c(O)c1C2=O)C[C@@](O)(C(=O)CO)C[C@@H]3O[C@H]1C[C@H](N)[C@H](O)[C@H](C)O1` [DOXORUBICIN]: the 50% inhibitory concentration (IC50) in the assay on SNU-C4 (setting [1]), with SNU1 (setting [2]) and in the assay with SNU-354 (setting [3]) was less than 0.5 µg/mL in each case.
On to `CC(=O)N1CCN(c2cc3c(cc2F)c(=O)c(C(=O)O)c2oc4ccccc4n23)CC1`, for which the IC50 in the assay on SNU-C4 (setting [1]), with SNU1 (setting [2]) and with SNU-354 (setting [3]) was greater than 200 µg/mL in each case.
For the molecule `O=C(O)c1c(=O)c2cc(F)c(N3CCNCC3)cc2n2c1oc1ccccc12`, the IC50 amounted to 13.4 µg/mL (≈ 35.1 µM) in the assay on SNU-C4 (setting [1]), 15.3 µg/mL (≈ 40.1 µM) with SNU1 (setting [2]) and 19.8 µg/mL (≈ 51.9 µM) with SNU-354 (setting [3]).

A word on the IC50: it is the concentration that gives 50% inhibition.
